A short description of the series: Intestinal S9 fraction stability, dog. On the procedure:
(§1) Reaction mixture, minus cofactors, was prepared as described below. Test article was added into the reaction mixture at a final concentration of 1 μM. […] An aliquot of the reaction mixture (without cofactor cocktail) was equilibrated in a shaking water bath at 37° C. for 3 minutes. The reaction was initiated by the addition of cofactor cocktail, and the mixture was incubated in a shaking water bath at 37° C. Aliquots (100 μL) were withdrawn at 0, 10, 20, 30, and 60 minutes. Test article samples were immediately combined with 300 μL of ice-cold acetonitrile containing 1% formic acid. Control samples were immediately combined with 400 μL of ice-cold 50/50 acetonitrile (ACN)/dH2O containing 0.1% formic acid and internal standard to terminate the reaction. Samples were then mixed and centrifuged to precipitate proteins. Calibration standards were prepared in matched matrix. Samples and standards were assayed by LC-MS/MS using electrospray ionization for both the dosed prodrug and the expected drug (PEA). Analytical conditions are outlined in Appendix 8-1. Test article concentration at each time point was compared to test article concentration at time 0 to determine the percent remaining at each time point. Halflives were calculated using GraphPad software, fitting to a single-phase exponential decay equation.
as §1, with “for 5” for “for 3”, “minutes. Reaction” for “minutes. The reaction”, “and” for “and the”, “both” for “both the”, “Appendix 10-1.” for “Appendix 8-1.”
Reaction mixture, minus cofactors, was prepared as described below. Test article was added into the reaction mixture at a final concentration of 1 μM. […] An aliquot of the reaction mixture (without cofactor cocktail) was equilibrated in a shaking water bath at 37° C. for 3 minutes. Reaction was initiated by the addition of cofactor cocktail, and the mixture was incubated in a shaking water bath at 37° C. Aliquots (100 μL) were withdrawn at 0, 10, 20, 30, and 60 minutes. Test article samples were immediately combined with 300 μL of ice-cold acetonitrile containing 1% formic acid. Control samples were immediately combined with 400 μL of ice-cold 50/50 acetonitrile (ACN)/dH2O containing 0.1% formic acid and internal standard to terminate the reaction. Samples were then mixed and centrifuged to precipitate proteins. Calibration standards were prepared in matched matrix. Samples and standards were assayed by LC-MS/MS using electrospray ionization for both dosed prodrug and expected drug (PEA). Analytical conditions are outlined in Appendix 13-1. Test article concentration at each time point was compared to test article concentration at time 0 to determine the percent remaining at each time point. Halflives were calculated using GraphPad software, fitting to a single-phase exponential decay equation.

In patent publication US11547681B2, “N-acylethanolamide derivatives and uses thereof” (ELIEM THERAPEUTICS, INC., priority 2016, dated 2023) one finds CLin, microsomal CLint and half-life data, which are given here for 1 compound.

By microsomal CLint is commonly meant a measure of how fast metabolising enzymes remove a compound, apart from limits set by blood flow. By half-life is commonly meant how long it takes for the measured level to halve. As to `C[C@]12CC[C@H]3[C@@H](CCC4=CC(=O)CC[C@@]43C)[C@@H]1CC[C@@H]2O` [Testosterone, testosterone, reference compound], for the setting “control compound, dog intestinal S9 fraction”, the CLin was below 0.0116 ml/min/mg protein. The microsomal CLint is 7.22 µL/min/mg (male, Beagle, dog, s9, CLint (ml/min/mg protein), calculated value in parentheses, control compound, dog intestinal S9 fraction, calculated value beyond duration of experiment); below 11.6 µL/min/mg (male, Beagle, dog, s9, CLint (ml/min/mg protein), control compound, dog intestinal S9 fraction); below 11.6 µL/min/mg (male, Beagle, dog, s9, CLint, Control Compound, Dog intestinal S9 fraction); below 11.6 µL/min/mg (male, Beagle, dog, s9, CLint, Dog intestinal S9 fraction, control compound). In addition, the half-life (male, Beagle, dog, s9, Half-life (min), calculated value in parentheses, control compound, dog intestinal S9 fraction, calculated value beyond duration of experiment) was 1.6 h; the half-life (male, Beagle, dog, s9, Half-life (min), control compound, dog intestinal S9 fraction) is above 1 h; the half-life (male, Beagle, dog, s9, Half-life, Control Compound, Dog intestinal S9 fraction) was above 1 h; the half-life (male, Beagle, dog, s9, Half-life, control compound, dog intestinal S9 fraction) was above 1 h. Further, the half-life at 1 μM (male, Beagle, dog, s9, Half-life, Dog intestinal S9 fraction) was above 1 h.
